Laboratory results: the kinase profiling compilation of Christmann-Franck et al. (2016)

How the values were obtained:
Assay in all cases: KINOMEscan competition binding
Conditions in all cases: compound 10.0 µM
ABL2 (human) = ABL2 (human) (UniProt P42684)
ACVRL1 (human) = ACVRL1 (human) (UniProt P37023)
AKT3 (human) = AKT3 (human) (UniProt Q9Y243)
CDC42BPA (human) = CDC42BPA (human) (UniProt Q5VT25)
DCLK3 (human) = DCLK3 (human) (UniProt Q9C098)
EPHA1 (human) = EPHA1 (human) (UniProt P21709)
EPHA2 (human) = EPHA2 (human) (UniProt P29317)
EPHA5 (human) = EPHA5 (human) (UniProt P54756)
Sequence of EPHA5 (human) (P54756 whole entry, looked up): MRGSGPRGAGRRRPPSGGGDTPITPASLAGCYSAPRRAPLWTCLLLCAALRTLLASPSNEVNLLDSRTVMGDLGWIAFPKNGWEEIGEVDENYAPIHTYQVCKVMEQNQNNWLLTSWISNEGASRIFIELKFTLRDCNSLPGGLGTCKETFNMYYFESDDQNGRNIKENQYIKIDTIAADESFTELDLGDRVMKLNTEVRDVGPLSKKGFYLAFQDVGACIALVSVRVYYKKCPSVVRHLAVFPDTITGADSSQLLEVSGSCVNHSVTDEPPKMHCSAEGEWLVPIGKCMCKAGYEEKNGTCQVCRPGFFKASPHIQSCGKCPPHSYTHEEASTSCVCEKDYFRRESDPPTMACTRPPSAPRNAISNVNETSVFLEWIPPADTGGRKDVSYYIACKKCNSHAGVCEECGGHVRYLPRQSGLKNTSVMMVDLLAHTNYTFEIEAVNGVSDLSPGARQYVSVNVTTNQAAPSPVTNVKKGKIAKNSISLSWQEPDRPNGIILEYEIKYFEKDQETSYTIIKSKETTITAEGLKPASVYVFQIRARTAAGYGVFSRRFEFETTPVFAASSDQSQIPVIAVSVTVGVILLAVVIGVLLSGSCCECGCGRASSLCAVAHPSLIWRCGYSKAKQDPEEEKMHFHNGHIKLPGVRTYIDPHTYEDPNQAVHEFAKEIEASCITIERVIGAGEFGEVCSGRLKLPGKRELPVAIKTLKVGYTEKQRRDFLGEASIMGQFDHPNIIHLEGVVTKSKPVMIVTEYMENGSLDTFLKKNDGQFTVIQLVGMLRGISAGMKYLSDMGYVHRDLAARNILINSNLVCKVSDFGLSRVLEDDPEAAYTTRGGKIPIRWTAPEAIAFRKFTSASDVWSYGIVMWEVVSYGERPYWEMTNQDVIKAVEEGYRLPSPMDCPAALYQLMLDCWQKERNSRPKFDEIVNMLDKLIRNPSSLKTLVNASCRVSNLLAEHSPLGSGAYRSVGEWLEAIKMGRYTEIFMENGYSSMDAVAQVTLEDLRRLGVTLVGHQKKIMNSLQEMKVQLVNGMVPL

EPHA7 (human) = EPHA7 (human) (UniProt Q15375)
LATS1 (human) = LATS1 (human) (UniProt O95835)
Sequence of LATS1 (human) (O95835 whole entry, looked up): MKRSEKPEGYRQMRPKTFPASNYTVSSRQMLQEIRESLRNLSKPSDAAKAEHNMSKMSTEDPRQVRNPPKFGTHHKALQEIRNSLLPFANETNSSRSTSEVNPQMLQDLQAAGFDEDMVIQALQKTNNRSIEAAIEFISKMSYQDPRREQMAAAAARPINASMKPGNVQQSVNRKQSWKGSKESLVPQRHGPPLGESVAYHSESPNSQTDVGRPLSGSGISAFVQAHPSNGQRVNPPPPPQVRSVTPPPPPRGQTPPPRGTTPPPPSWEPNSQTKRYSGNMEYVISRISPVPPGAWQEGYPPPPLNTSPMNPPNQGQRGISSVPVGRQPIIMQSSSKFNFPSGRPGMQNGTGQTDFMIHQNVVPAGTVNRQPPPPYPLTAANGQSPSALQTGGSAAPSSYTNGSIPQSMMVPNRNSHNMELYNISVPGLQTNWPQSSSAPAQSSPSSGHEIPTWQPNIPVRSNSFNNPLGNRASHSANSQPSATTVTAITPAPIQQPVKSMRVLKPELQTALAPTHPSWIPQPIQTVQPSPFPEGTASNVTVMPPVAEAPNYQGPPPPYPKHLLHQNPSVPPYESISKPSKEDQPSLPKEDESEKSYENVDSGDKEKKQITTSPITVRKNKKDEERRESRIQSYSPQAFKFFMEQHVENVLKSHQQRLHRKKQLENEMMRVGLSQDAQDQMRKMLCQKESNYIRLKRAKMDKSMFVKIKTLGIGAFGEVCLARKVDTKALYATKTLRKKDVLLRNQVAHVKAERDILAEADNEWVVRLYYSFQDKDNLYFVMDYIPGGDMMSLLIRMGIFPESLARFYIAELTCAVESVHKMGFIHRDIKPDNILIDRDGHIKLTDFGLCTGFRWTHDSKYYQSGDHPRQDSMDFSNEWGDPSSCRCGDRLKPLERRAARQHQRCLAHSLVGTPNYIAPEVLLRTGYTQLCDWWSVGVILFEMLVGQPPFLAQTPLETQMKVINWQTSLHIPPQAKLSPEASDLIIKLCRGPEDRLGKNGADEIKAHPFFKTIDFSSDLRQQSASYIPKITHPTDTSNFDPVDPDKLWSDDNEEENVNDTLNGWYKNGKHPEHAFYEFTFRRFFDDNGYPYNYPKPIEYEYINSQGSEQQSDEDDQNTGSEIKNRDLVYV

LATS2 (human) = LATS2 (human) (UniProt Q9NRM7)
MAP2K4 (human) = MAP2K4 (human) (UniProt P45985)
MAP3K11 (human) = MAP3K11 (human) (UniProt Q16584)
NUAK2 (human) = NUAK2 (human) (UniProt Q9H093)
Sequence of NUAK2 (human) (Q9H093 whole entry, looked up): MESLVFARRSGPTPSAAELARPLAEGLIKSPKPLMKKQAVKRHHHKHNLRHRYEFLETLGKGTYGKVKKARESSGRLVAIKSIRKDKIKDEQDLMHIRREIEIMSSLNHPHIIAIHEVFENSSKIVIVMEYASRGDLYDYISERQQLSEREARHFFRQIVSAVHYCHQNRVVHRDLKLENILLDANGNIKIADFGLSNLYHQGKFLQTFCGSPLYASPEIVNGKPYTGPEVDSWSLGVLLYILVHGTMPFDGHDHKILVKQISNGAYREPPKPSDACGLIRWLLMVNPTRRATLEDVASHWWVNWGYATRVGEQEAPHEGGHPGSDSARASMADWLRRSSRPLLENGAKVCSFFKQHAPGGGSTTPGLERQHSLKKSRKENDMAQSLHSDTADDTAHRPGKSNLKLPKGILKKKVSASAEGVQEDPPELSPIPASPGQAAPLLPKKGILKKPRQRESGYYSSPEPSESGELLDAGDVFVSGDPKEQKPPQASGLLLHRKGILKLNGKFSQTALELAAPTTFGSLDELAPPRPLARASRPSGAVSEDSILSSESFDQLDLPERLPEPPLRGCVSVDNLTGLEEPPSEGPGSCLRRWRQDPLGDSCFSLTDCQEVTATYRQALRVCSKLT

PDGFRB (human) = PDGFRB (human) (UniProt P09619)
PHKG1 (human) = PHKG1 (human) (UniProt Q16816)
Sequence of PHKG1 (human) (Q16816 whole entry, looked up): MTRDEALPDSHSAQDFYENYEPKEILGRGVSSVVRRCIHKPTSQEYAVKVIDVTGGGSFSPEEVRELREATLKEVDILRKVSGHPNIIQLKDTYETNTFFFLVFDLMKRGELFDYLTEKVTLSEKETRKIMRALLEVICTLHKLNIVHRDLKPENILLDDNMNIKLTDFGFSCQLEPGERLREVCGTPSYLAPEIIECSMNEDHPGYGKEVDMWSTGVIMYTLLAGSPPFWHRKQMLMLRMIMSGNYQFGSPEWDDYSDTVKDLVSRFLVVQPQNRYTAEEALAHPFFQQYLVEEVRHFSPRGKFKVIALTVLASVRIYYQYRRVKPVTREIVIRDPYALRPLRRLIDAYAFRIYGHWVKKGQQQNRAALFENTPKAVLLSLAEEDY

PIK3C2B (human) = PIK3C2B (human) (UniProt O00750)
PIK3CB (human) = PIK3CB (human) (UniProt P42338)
PIP5K1A (human) = PIP5K1A (human) (UniProt Q99755)
PKMYT1 (human) = PKMYT1 (human) (UniProt Q99640)
RPS6KA4 KD1 (human) = RPS6KA4 KD1 (human) (UniProt O75676)
RPS6KA6 KD2 (human) = RPS6KA6 KD2 (human) (UniProt Q9UK32)
STK16 (human) = STK16 (human) (UniProt O75716)
STK32C (human) = STK32C (human) (UniProt Q86UX6)
TEC (human) = TEC (human) (UniProt P42680)
TNNI3K (human) = TNNI3K (human) (UniProt Q59H18)
TTK (human) = TTK (human) (UniProt P33981)
ULK1 (human) = ULK1 (human) (UniProt O75385)
ULK2 (human) = ULK2 (human) (UniProt Q8IYT8)
CPK1 (P.falciparum) = tested on: CPK1 (P.falciparum)
DSTYK (human) = DSTYK (human) (UniProt Q6XUX3)
DYRK2 (human) = DYRK2 (human) (UniProt Q92630)
[1] = tested on: FLT3 (human), P36888 [R834Q]
GRK7 (human) = GRK7 (human) (UniProt Q8WTQ7)
MAP2K5 (human) = MAP2K5 (human) (UniProt Q13163)
MAP2K7 (human) = MAP2K7 (human) (UniProt O14733)
SNRK (human) = SNRK (human) (UniProt Q9NRH2)
TBK1 (human) = TBK1 (human) (UniProt Q9UHD2)
ROCK1 (human) = ROCK1 (human) (UniProt Q13464)

Sequence of CDC42BPA (human) (Q5VT25 whole entry, looked up): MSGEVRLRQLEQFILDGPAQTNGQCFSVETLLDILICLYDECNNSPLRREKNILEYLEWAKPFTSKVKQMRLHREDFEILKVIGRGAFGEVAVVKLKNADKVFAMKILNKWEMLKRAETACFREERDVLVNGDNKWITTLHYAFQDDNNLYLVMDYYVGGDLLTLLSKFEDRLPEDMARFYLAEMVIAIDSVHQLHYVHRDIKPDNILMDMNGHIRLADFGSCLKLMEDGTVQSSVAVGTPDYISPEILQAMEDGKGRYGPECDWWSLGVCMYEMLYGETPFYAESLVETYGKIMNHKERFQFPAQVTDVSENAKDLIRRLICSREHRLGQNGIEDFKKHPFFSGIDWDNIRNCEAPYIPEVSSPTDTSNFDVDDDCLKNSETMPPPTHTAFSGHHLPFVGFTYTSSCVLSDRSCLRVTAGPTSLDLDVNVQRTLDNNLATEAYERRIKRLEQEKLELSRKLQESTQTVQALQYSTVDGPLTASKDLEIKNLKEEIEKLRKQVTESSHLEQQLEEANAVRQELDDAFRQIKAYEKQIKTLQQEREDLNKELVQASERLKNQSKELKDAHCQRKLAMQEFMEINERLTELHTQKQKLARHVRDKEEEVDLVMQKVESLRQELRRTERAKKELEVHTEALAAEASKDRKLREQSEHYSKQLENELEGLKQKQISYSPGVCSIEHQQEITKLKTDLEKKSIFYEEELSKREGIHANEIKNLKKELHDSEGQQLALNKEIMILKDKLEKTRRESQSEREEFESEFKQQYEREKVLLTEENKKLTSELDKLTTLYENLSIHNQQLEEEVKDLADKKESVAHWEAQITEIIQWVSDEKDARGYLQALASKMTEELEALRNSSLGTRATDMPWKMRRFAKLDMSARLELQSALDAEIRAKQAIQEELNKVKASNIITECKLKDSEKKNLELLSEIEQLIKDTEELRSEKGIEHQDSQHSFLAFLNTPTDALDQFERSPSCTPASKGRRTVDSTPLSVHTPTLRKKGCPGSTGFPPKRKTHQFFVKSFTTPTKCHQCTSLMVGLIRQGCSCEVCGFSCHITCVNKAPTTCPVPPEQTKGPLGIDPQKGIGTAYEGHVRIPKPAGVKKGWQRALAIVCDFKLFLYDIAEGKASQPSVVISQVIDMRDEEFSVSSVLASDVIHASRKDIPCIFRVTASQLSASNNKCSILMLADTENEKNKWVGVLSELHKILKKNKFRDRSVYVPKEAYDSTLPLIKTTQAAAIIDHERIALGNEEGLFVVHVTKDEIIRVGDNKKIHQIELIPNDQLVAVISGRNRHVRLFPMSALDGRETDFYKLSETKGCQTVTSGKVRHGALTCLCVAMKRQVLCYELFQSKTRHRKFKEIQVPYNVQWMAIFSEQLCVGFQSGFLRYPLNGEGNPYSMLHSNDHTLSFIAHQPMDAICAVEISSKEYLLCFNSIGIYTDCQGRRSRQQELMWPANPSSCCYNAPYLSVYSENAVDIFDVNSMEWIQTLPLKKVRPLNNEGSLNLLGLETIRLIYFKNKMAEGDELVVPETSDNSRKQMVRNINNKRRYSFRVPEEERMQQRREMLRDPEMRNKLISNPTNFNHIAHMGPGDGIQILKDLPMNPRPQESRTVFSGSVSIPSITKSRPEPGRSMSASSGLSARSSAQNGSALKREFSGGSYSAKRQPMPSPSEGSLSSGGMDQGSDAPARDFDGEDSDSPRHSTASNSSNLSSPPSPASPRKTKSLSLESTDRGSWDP

| Compound | kinase still bound, per cent of control (ABL2 (human)) | kinase still bound, per cent of control (ACVRL1 (human)) | kinase still bound, per cent of control (AKT3 (human)) | kinase still bound, per cent of control (CDC42BPA (human)) | kinase still bound, per cent of control (DCLK3 (human)) | kinase still bound, per cent of control (EPHA1 (human)) | kinase still bound, per cent of control (EPHA2 (human)) | kinase still bound, per cent of control (EPHA5 (human)) | kinase still bound, per cent of control (EPHA7 (human)) | kinase still bound, per cent of control (LATS1 (human)) | kinase still bound, per cent of control (LATS2 (human)) | kinase still bound, per cent of control (MAP2K4 (human)) | kinase still bound, per cent of control (NUAK2 (human)) | kinase still bound, per cent of control (PDGFRB (human)) | kinase still bound, per cent of control (PHKG1 (human)) | kinase still bound, per cent of control (PIK3C2B (human)) | kinase still bound, per cent of control (PIK3CB (human)) | kinase still bound, per cent of control (PIP5K1A (human)) | kinase still bound, per cent of control (PKMYT1 (human)) | kinase still bound, per cent of control (RPS6KA4 KD1 (human)) | also measured |
| --- | --- | --- | --- | --- | --- | --- | --- | --- | --- | --- | --- | --- | --- | --- | --- | --- | --- | --- | --- | --- | --- |
| CNC(=O)c1ccc(Nc2cc(Nc3ccccc3S(=O)(=O)C(C)C)c3cc[nH]c3n2)nc1 | 9.4% | 100% | 100% | 100% | 2.8% | 100% | 100% | 100% | 1.7% | 100% | 100% | 100% | 0.4% | 8.4% | 100% | 100% | 100% | 4.6% | 100% | 2.2% | kinase still bound, per cent of control (MAP3K11 (human)): 7.2%; kinase still bound, per cent of control (RPS6KA6 KD2 (human)): 100%; kinase still bound, per cent of control (STK16 (human)): 2.8%; kinase still bound, per cent of control (STK32C (human)): 100%; kinase still bound, per cent of control (TEC (human)): 2.6%; kinase still bound, per cent of control (TNNI3K (human)): 100%; kinase still bound, per cent of control (TTK (human)): 4.6%; kinase still bound, per cent of control (ULK1 (human)): 7.2%; kinase still bound, per cent of control (ULK2 (human)): 9.1% |
| NC(=O)Nc1cc(-c2cccc(F)c2)sc1C(=O)N[C@@H]1CCCNC1 | 0.2% | 76% | 100% | 62% | 56% | 1.4% | 7.4% | 4.8% | 0.1% | 11% | 2% | 2.2% | 2.2% | 0% | 0.1% | 16% | 68% | 0% | 33% | 0.2% | kinase still bound, per cent of control (CPK1 (P.falciparum)): 0.1%; kinase still bound, per cent of control (DSTYK (human)): 1.3%; kinase still bound, per cent of control (DYRK2 (human)): 26%; kinase still bound, per cent of control [1]: 5.6%; kinase still bound, per cent of control (GRK7 (human)): 0.15%; kinase still bound, per cent of control (MAP2K5 (human)): 0.05%; kinase still bound, per cent of control (MAP2K7 (human)): 80%; kinase still bound, per cent of control (RPS6KA6 KD2 (human)): 1.2%; kinase still bound, per cent of control (SNRK (human)): 2.6%; kinase still bound, per cent of control (STK16 (human)): 21%; kinase still bound, per cent of control (STK32C (human)): 53%; kinase still bound, per cent of control (TBK1 (human)): 4.8%; kinase still bound, per cent of control (TEC (human)): 0.4%; kinase still bound, per cent of control (TNNI3K (human)): 7.3%; kinase still bound, per cent of control (TTK (human)): 12%; kinase still bound, per cent of control (ULK1 (human)): 0%; kinase still bound, per cent of control (ULK2 (human)): 0% |
| CCN(CC)CCCCNc1ncc2c(n1)N(C)C(=O)N(c1c(Cl)c(OC)cc(OC)c1Cl)C2 | 100% | 100% | 100% | 100% | 100% | 100% | 100% | 100% | 100% | 100% | 100% | 100% | 100% | 21% | 100% | 100% | 100% | 100% | 100% | 100% | kinase still bound, per cent of control (DYRK2 (human)): 100%; kinase still bound, per cent of control (GRK7 (human)): 100%; kinase still bound, per cent of control (MAP3K11 (human)): 100%; kinase still bound, per cent of control (ROCK1 (human)): 100%; kinase still bound, per cent of control (RPS6KA6 KD2 (human)): 100%; kinase still bound, per cent of control (STK16 (human)): 100%; kinase still bound, per cent of control (STK32C (human)): 100%; kinase still bound, per cent of control (TBK1 (human)): 100%; kinase still bound, per cent of control (TEC (human)): 100%; kinase still bound, per cent of control (TNNI3K (human)): 100%; kinase still bound, per cent of control (TTK (human)): 100%; kinase still bound, per cent of control (ULK1 (human)): 100%; kinase still bound, per cent of control (ULK2 (human)): 100% |
| COCC(=O)NC/C=C/c1ccc2ncnc(Nc3ccc(Oc4ccc(C)nc4)c(C)c3)c2c1 | 100% | 84% | 100% | 100% | 83% | 88% | 100% | 100% | 100% | 100% | 100% | 95% | 100% | 46% | 100% | 88% | 100% | 88% | 100% | 97% | kinase still bound, per cent of control (CPK1 (P.falciparum)): 25%; kinase still bound, per cent of control (DSTYK (human)): 75%; kinase still bound, per cent of control (DYRK2 (human)): 100%; kinase still bound, per cent of control [1]: 100%; kinase still bound, per cent of control (GRK7 (human)): 100%; kinase still bound, per cent of control (MAP2K5 (human)): 0.2%; kinase still bound, per cent of control (MAP2K7 (human)): 100%; kinase still bound, per cent of control (MAP3K11 (human)): 92%; kinase still bound, per cent of control (ROCK1 (human)): 100%; kinase still bound, per cent of control (RPS6KA6 KD2 (human)): 88%; kinase still bound, per cent of control (SNRK (human)): 71%; kinase still bound, per cent of control (STK32C (human)): 86%; kinase still bound, per cent of control (TBK1 (human)): 90%; kinase still bound, per cent of control (TEC (human)): 73%; kinase still bound, per cent of control (TNNI3K (human)): 100%; kinase still bound, per cent of control (TTK (human)): 80%; kinase still bound, per cent of control (ULK1 (human)): 47%; kinase still bound, per cent of control (ULK2 (human)): 100% |
